One assay has as its target T1, cIAP1 (BIR3) (Homo sapiens, UniProt Q13490).
T1 construct: human cIAP1 (BIR3, Leu250-Gly350); made in house; host or cells: E. coli
Description: TR-FRET IAP/Smac peptide interaction assay, cIAP1. The following applies: FITC-Smac probe, read-out: Binding affinity IC50 cIAP1. The method, then:
(§1) The TR-FRET assay was carried out using 384-well white flat-bottom plates (Greiner Bio-One) and the signal was measured using an EnVision Multilabel Plate Reader (PerkinElmer, Waltham, MA, USA). The solution in each well was excited with a laser (λ = 337 nm) reflected by a dichroic mirror (D400/D505 (Perkin Elmer) and fluorescence from terbium (Tb) and BODIPY or FITC was detected through two emission filters (CFP 486 (Perkin Elmer) for Tb and Emission 515 (Perkin Elmer) for BODIPY and FITC). The assay buffer used in this study was composed of 50 mM HEPES (pH 7.2–7.5), 10 mM MgCl2, 1 mM EGTA, 0.1 mM DTT and 0.01% (v/v) Brij^(R) 35. All assays were carried out at room temperature in triplicate or quadruplicate formats.
(§2) The half maximal inhibitory concentration (IC50) of test compounds was calculated by fitting the data with the logistic equation using GraphPad Prism 5 (GraphPad Software, Inc., La Jolla, CA, USA) or XLfit (IDBS, Guildford, UK).
(§3) His-IAP proteins (XIAP, cIAP1 or cIAP2), FITC-Smac, Tb-SA and the biotinylated anti-His antibody (Life Technologies) were mixed in the assay buffer and incubated for over 1 h at room temperature before addition to the assay plate. […] After 1 h incubation at room temperature, the TR-FRET signal was measured using the EnVision Multilabel Plate Reader. […]
(In general: In TR-FRET formats the signal depends on donor and acceptor labels being close together.)

The next assay deals with T2, cIAP2 (BIR3) (Homo sapiens, UniProt Q13489).
T2 construct: cIAP2 (BIR3, Gln238-Ser349) proteins were expressed in E. coli; made in house; host or cells: E. coli
T2 sequence (Q13489 238-349): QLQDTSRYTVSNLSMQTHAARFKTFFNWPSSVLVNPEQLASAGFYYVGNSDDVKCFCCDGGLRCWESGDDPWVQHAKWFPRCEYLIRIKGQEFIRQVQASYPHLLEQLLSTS
Description: TR-FRET IAP/Smac peptide interaction assay, cIAP2. The settings on record: FITC-Smac probe, read-out: Binding affinity IC50 cIAP2. The protocol: as §1, §2, §3

In assay [1] the test system is K562 cells. The assay is described as follows: WST cell growth inhibition, K562. In kind it is cell-based, Human. The settings on record: 48 h, WST assay; for IC50: Homo sapiens, means ± SD (n = 3). The protocol: (§4) Human CML (K562 and KU812 cells), acute T-lymphoblast leukemia (MOLT-4 cell), and T cell leukemia (Jurkat cell) were cultured in Roswell Park Memorial Institute-1640 medium (Sigma-Aldrich, St. Louis, MO, USA) containing 10% fetal bovine serum (Thermo Fisher Scientific, Waltham, MA, USA) and 50 μg/ml kanamycin (Sigma-Aldrich). KU812 cells were obtained from Japanese Collection of Research Bioresources (JCRB, Osaka, Japan) Cell Bank (JCRB0104)[58].
(§5) Cell viability was determined using water-soluble tetrazolium WST-8 (4-[3-(2-methoxy-4-nitrophenyl)-2-(4-nitrophenyl)-2H-5-tetrazolio]-1,3-benzene disulfonate) for the spectrophotometric assay and conducted according to the manufacturer’s instructions (Dojindo, Tokyo, Japan). Cells were seeded at a concentration of 5 × 10^3 cells per well in a 96-well culture plate, and treated with the indicated compounds for 48 h. The WST-8 reagent was added, and the cells were incubated for 0.5 h at 37 °C in a humidified atmosphere of 5% CO2. The absorbance at 450 nm of the medium was measured using the EnVision Multilabel Plate Reader.

The subject of the next assay is KU812 cells. Description: WST cell growth inhibition, KU812. The following applies: Homo sapiens, 48 h, WST assay, means ± SD (n = 3). The assay is classed as cell-based. The protocol: as §4, §5
The subject of another assay is MOLT-4 cells. Description: WST cell growth inhibition, MOLT-4 (BCR-ABL negative). In kind it is cell-based. The settings on record: Homo sapiens, MOLT4 cells, 48 h, WST assay, means ± SD (n = 3).
Another assay concerns Jurkat cells. Description: WST cell growth inhibition, Jurkat (BCR-ABL negative). The assay is classed as cell-based. The settings on record: Homo sapiens, 48 h, WST assay, means ± SD (n = 3).
Assay [2] deals with K562 cells. The assay is described as follows: Washout experiment, cell counting of K562 cells. In kind it is cell-based, Human. The settings on record: washed; for growth of K562 cells after drug removal: 25 or 50 times IC50 for 12 h, drug-free medium for 6 d. The method, then: (§6) Cells were seeded at a concentration of 2 × 10^6 cells per 10-cm tissue culture dish and treated with the indicated compounds for the indicated times. Then, the cells were washed three times to remove the compounds, and incubated in drug-free medium for the indicated times.

The subject of assay [3] is caspase 3 activation and PARP cleavage. The assay is described as follows: Caspase activation and PARP cleavage after drug removal in K562 cells. In kind it is cell-based, Human. The settings on record: K562, 50 times IC50 for 12 h, drug removal for 24 h. The method, then: Cells were collected and lysed in a lysis buffer (0.5% Triton X-100, 0.01 M Tris-HCl (pH 7.5), 0.15 M NaCl, Complete Mini protease inhibitor cocktail (Roche Applied Science, Indianapolis, IL, USA) and PhosStop phosphatase inhibitor cocktail (Roche Applied Science)). Protein concentrations were measured by the BCA method (Thermo Fisher Scientific) and an equal amount of protein lysate was separated by SDS-PAGE, transferred to polyvinylidene difluoride membranes (Merck Millipore) and analyzed by western blot using an appropriate antibody. The immunoreactive proteins were visualized using Clarity Western ECL substrate (Bio-Rad, Hercules, CA, USA) and their light emission was quantified with a LAS-3000 lumino-image analyzer (Fuji, Tokyo, Japan). The following antibodies were used: anti-cAbl rabbit polyclonal antibody (pAb) (#2862), anti-XIAP rabbit pAb (#2042), anti-phospho-cAbl rabbit pAb (#3009), anti-STAT5 rabbit pAb (#9363), anti-phospho-STAT5 rabbit pAb (#9359), anti-CrkL mouse monoclonal antibody (mAb) (#3182) and anti-phospho-CrkL rabbit pAb (#3181), anti-PARP rabbit pAb (#9532), and anti-cleaved Caspase 3 rabbit pAb (#9664) (Cell Signaling Technology, Danvers, MA, USA); anti-β-tubulin (ab6046) rabbit pAb (Abcam, Cambridge, UK) and anti-GAPDH rabbit pAb (sc-25778 HRP) (Santa Cruz, Dallas, TX, USA); anti-cIAP1 goat pAb (AF8181) (R&D systems).
as §6

Broadly, the IC50 is the concentration that gives 50% inhibition.

T1 sequence (Q13490 250-350): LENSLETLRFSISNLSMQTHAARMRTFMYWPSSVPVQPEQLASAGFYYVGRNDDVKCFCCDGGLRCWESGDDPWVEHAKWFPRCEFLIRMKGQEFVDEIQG

Consider `CN[C@@H](C)C(=O)N[C@H](C(=O)N1CCC[C@H]1c1nc(C(=O)c2cccc(OCCOCCOCCOCC(=O)N3CCN(c4cc(Nc5ncc(C(=O)Nc6c(C)cccc6Cl)s5)nc(C)n4)CC3)c2)cs1)C1CCCCC1` [DAS-IAP], for which the IC50 came out at 10 nM at cIAP1 (BIR3); 12 nM at cIAP2 (BIR3); 8.6 nM in the assay with K562 cells [1]; 8.97 ± 0.99 nM with KU812 cells; 1720 ± 64.9 nM in the assay on MOLT-4 cells; 2870 ± 293 nM in the assay with Jurkat cells. For the same compound, the “suppression of K562 cell growth (comparison)” value in the assay with K562 cells [1] is recorded as “more potent suppression of K562 cell growth than DAS-VHL”. For the same compound, the “growth of K562 cells after drug removal” value with K562 cells [2] is “markedly inhibited the growth”. Besides, the “K562 cell number after drug removal” value in the assay with K562 cells [2] (50 times IC50 for 12 h, drug-free medium) was “decreased continuously”. In addition, the “caspase 3 activation and PARP cleavage” value in assay [3] is “induced”.
On to `CN[C@@H](C)C(=O)N(C)[C@H](C(=O)N1CCC[C@H]1c1nc(C(=O)c2cccc(OCCOCCOCCOCC(=O)N3CCN(c4cc(Nc5ncc(C(=O)Nc6c(C)cccc6Cl)s5)nc(C)n4)CC3)c2)cs1)C1CCCCC1` [DAS-meIAP], for which the half-inhibitory concentration (IC50) on cIAP1 (BIR3) is greater than 1000 nM; on cIAP2 (BIR3) it was greater than 1000 nM; with K562 cells [1], 3.93 nM; in the assay with KU812 cells, 3.57 ± 0.22 nM; in the assay on MOLT-4 cells, 1900 ± 108 nM; in the assay with Jurkat cells, 2440 ± 310 nM. Further, the “growth of K562 cells after drug removal” value with K562 cells [2] is “slightly delayed the growth”. Besides, the “caspase 3 activation and PARP cleavage” value in assay [3] was “not”.

For the origin of these results see publication PMC6131351, “Pharmacological difference between degrader and inhibitor against oncogenic BCR-ABL kinase” (Scientific Reports, 2018).
